In patent US6358883B1, “Pesticidal and parasiticidal use of 1-aryl-1-(substituted thio, sulfinyl and sulfonyl)-2-nitroethane compounds” (American Cyanamid Company, priority 1998, dated 2002):

Key:
Assay type in all cases: in vivo
[1] = system: M. incognita (Root Knot Nematode) larvae; experiment: Evaluation of test compounds against M. incognita larvae in microtiter plate wells (movement score); settings: larvae scored for movement after 20-24 hours; further: key: A score of '9' indicates inactive worms with a straight, sticklike morphology; A score of '8' indicates inactive worms with a limp, curled or curved morphology; A score of '7' indicates dead/paralyzed worms after 72 hours
Description: Evaluation of Test Compounds Against M. incognita (Root Knot Nematode)
Newly emerged M. incognita larvae are suspended in S Medium (buffered salt solution) to a concentration of 50-65 worms per 50 μl. 50 μl of the worm suspension are pipetted into microtiter plate wells containing the test compounds. The plates are then covered with plactic plate sealers to reduce loss of volume by evaporation. After 20-24 hours of incubation, the larvae are scored for movement. Wells containing obviously dead/paralyzed larvae are scored as positive. […] A score of “7” indicates dead/paralyzed worms after […].

[2] = system: C. elegans (Bristol strain); experiment: Evaluation of test compounds against C. elegans (motility, 96-well plate); parameters: key: 9=complete kill in 4 hours; 8=complete kill in 24 hours; 7=markedly reduced motility in approximately 95% of worms in 24 hours; 0=normal motility, same as controls; settings: motility at 4 and 24 hours
Description: Evaluation of Test Compounds Against C. elegans Cultures of C. elegans (Bristol strain from J. Lewis) are maintained on E. coli lawns on NG Agar Plates at 20° C. New cultures are established weekly. Nematodes for testing are washed from cultures using Na buffer. Compounds are dissolved in 80% acetone. The test material is micropipetted (25 μl) into a single well of a 96-well sterile tissue culture plate and the solvent allowed to evaporate. A freshly prepared volume (50 μl) of C. elegans in Na buffer is micropipetted into each treated well and several control wells per plate. Plates are incubated at 20° C. Observations for efficacy are made under a dissecting microscope at 4 and 24 hours post-immersion. Immediately prior to reading the plate, it is gently tapped to stimulate the movement of the worms. Activity is judged subjectively, but semi-quantitatively, based on the drug effects on motility of the adults and larvae.

[3] = system: Diabrotica virgifera virgifera Leconte, 2nd instar western corn rootworm (WCR); experiment: Western corn rootworm (WCR) soil test; parameters: key: 0 = no effect; 1 = 10-25% kill; 2 = 26-35% kill; 3 = 36-45% kill; 4 = 46-55% kill; 5 = 56-65% kill; 6 = 66-75% kill; 7 = 76-85% kill; 8 = 86-99% kill; 9 = 100% kill
Description: Test solutions are prepared by dissolving the test compound in a 35% acetone in water mixture to give a concentration of 10,000 ppm. Subsequent dilutions are made with water as needed. Diabrotica virgifera virgifera Leconte, 2nd Instar Western Corn Rootworm (WCR) One cc of fine talc is placed in a 30 mL wide-mouth screw-top glass jar. One mL of the appropriate acetone test solution is pipetted onto the talc so as to provide 1.25 mg of active ingredient per jar. The jars are set under a gentle air flow until the acetone is evaporated. The dried talc is loosened, 1 cc of millet seed is added to serve as food for the insects and 25 mL of moist soil is added to each jar. The jar is capped and the contents thoroughly mixed mechanically. Following this, ten 2nd instar rootworms are added to each jar and the jars are loosely capped to allow air exchange for the larvae. The treatments are held for 5 days when mortality counts are made. Missing larvae are presumed dead, since they decompose rapidly and cannot be found. The concentrations of active ingredient used in this test correspond approximately to 50 kg/ha. [table]

[4] = system: Aphis gossypii, cotton aphid (CA); experiment: Cotton aphid (CA) cotyledon dip test; parameters: key: 0 = no effect; 1 = 10-25% kill; 2 = 26-35% kill; 3 = 36-45% kill; 4 = 46-55% kill; 5 = 56-65% kill; 6 = 66-75% kill; 7 = 76-85% kill; 8 = 86-99% kill; 9 = 100% kill; settings: mortality after 5 days
Description: Test solutions are prepared by dissolving the test compound in a 35% acetone in water mixture to give a concentration of 10,000 ppm. Subsequent dilutions are made with water as needed. Aphis gossypii, Cotton Aphid (CA) Cotton plants at the cotyledon stage are selected and cut back to one plant per pot. A heavily infested leaf is taken from the main colony and placed on top of each cotyledon. The aphids are allowed to transfer to the host plant overnight. At the time of test treatment, the leaf used to transfer the aphids is removed and discarded. The cotyledons are dipped in the test solution and allowed to dry. After 5 days, mortality counts are made. [table]

[5] = system: Tetranychus urticae (OP-resistant strain), 2-spotted spider mite (TSM); experiment: 2-spotted spider mite (TSM) plant dip test; parameters: key: 0 = no effect; 1 = 10-25% kill; 2 = 26-35% kill; 3 = 36-45% kill; 4 = 46-55% kill; 5 = 56-65% kill; 6 = 66-75% kill; 7 = 76-85% kill; 8 = 86-99% kill; 9 = 100% kill; settings: mortality after 2 days
Description: (§1) Test solutions are prepared by dissolving the test compound in a 35% acetone in water mixture to give a concentration of 10,000 ppm. Subsequent dilutions are made with water as needed.
Tetranychus urticae (OP-resistant strain), 2-spotted Spider Mite (TSM)
Sieva lima bean plants with primary leaves expanded to 7-8 cm are selected and cut back to one plant per pot. A small piece is cut from an infested leaf taken from the main colony and placed on each leaf of the test plants. This is done about 2 hours before treatment to allow the mites to move over to the test plant to lay eggs. The size of the cut, infested leaf is varied to obtain about 100 mites per leaf. At the time of test treatment, the piece of leaf used to transfer the mites is removed and discarded. The newly-infested plants are dipped in the test solution for 3 seconds with agitation and set in the hood to dry. After 2 days, one leaf is removed and mortality counts are made.

[6] = system: Spodoptera eridania, 2nd instar larvae, southern armyworm (SAW); experiment: Southern armyworm (SAW) leaf dip test; parameters: key: 0 = no effect; 1 = 10-25% kill; 2 = 26-35% kill; 3 = 36-45% kill; 4 = 46-55% kill; 5 = 56-65% kill; 6 = 66-75% kill; 7 = 76-85% kill; 8 = 86-99% kill; 9 = 100% kill
Description: as §1
Spodoptera eridania, 2nd Instar Larvae, Southern Armyworm (SAW)
A Sieva lima bean leaf expanded to 7-8 cm in length is dipped in the test solution with agitation for 3 seconds and allowed to dry in a hood. The leaf is then placed in a 100×10 mm petri dish containing a damp filter paper on the bottom and ten 2nd instar caterpillars. At 5 days, observations are made of mortality, reduced feeding, or any interference with normal molting.

| SMILES | M. incognita (150 ppm) score [1] | Rating Against C. elegans (150 ppm) [2] | WCR (50 ppm) rating [3] | CA (300 ppm) rating [4] | TSM (300 ppm) rating [5] | SAW (300 ppm) rating [6] |
| --- | --- | --- | --- | --- | --- | --- |
| COc1ccc(C(C[N+](=O)[O-])SCc2ccccc2)c(OC)c1 (stereo not shown) [Example 81] | 0 | 7 |  |  |  |  |
| COC(=O)CSC(C[N+](=O)[O-])c1ccc(Cl)cc1 (stereo not shown) [Example 70] | 9 | 7 | 0 | 0 | 0 | 0 |
| CCCCOC(=O)CSC(C[N+](=O)[O-])c1ccc(Cl)cc1 (stereo not shown) [Example 72] | 0 | 0 | 0 | 0 | 0 | 0 |
| CCCSC(C[N+](=O)[O-])c1ccc(Cl)cc1 (stereo not shown) [Example 76] | 0 | 7 | 0 | 0 | 0 | 0 |
| O=C(O)CSC(C[N+](=O)[O-])c1ccc(F)cc1 (stereo not shown) [Example 63] | 9 | 9 | 0 | 0 | 0 | 0 |
| O=[N+]([O-])CC(SCC(O)CO)c1ccccc1 (stereo not shown) [Example 85] | 9 | 7 |  |  |  |  |
| COC(=O)CSC(C[N+](=O)[O-])c1ccc(OC)cc1OC (stereo not shown) [Example 79] | 0 | 7 |  |  |  |  |
| NC(CSC(C[N+](=O)[O-])c1ccccc1)C(=O)O (stereo not shown) [Example 83] | 9 | 9 |  |  |  |  |
| COc1ccc(C(C[N+](=O)[O-])SCC(=O)N2CCOCC2)c(OC)c1 (stereo not shown) [Example 80] | 0 | 7 |  |  |  |  |
| COc1cc(OC)cc(C(C[N+](=O)[O-])SCC(O)CO)c1 (stereo not shown) [Example 87] | 0 | 0 |  |  |  |  |
| O=[N+]([O-])CC(SCc1ccco1)c1ccccc1 (stereo not shown) [Example 156] |  |  | 0 | 0 | 0 | 0 |
| COc1ccc(C(C[N+](=O)[O-])SCC(N)C(=O)O)c(OC)c1 (stereo not shown) [Example 84] | 0 | 9 |  |  |  |  |
| CCCCOC(=O)CSC(c1ccccc1)C(C)[N+](=O)[O-] (stereo not shown) [Example 162] |  |  | 6 (6 = 66-75% kill) | 0 | 0 | 0 |
| COC(=O)CSC(c1ccccc1)C(C)[N+](=O)[O-] (stereo not shown) [Example 150] |  |  | 6 (6 = 66-75% kill) | 0 | 0 | 0 |
| CCOC(=O)CSC(C[N+](=O)[O-])c1ccc(F)c(F)c1 (stereo not shown) [Example 153] |  |  | 0 | 0 | 0 | 0 |
| C=CCSC(C[N+](=O)[O-])c1ccc(Cl)cc1 (stereo not shown) [Example 77] | 0 | 0 | 0 |  | 3 (3 = 36-45% kill) | 0 |
| CCCOC(=O)CSC(C[N+](=O)[O-])c1ccc(F)c(F)c1 (stereo not shown) [Example 154] |  |  | 0 | 0 | 0 | 0 |
| CC(C(SCC(=O)O)c1ccccc1)[N+](=O)[O-] (stereo not shown) [Example 161] |  |  | 4 (4 = 46-55% kill) | 0 | 0 | 0 |
| COC(=O)CSC(C[N+](=O)[O-])c1ccc(OC)c(OC)c1 (stereo not shown) [Example 86] | 0 | 0 |  |  |  |  |
| COC(=O)CSC(C[N+](=O)[O-])c1ccc(F)c(F)c1 (stereo not shown) [Example 152] |  |  | 7 (7 = 76-85% kill) | 0 | 0 | 0 |
| CC(C)OC(=O)CSC(C[N+](=O)[O-])c1ccc(F)c(F)c1 (stereo not shown) [Example 155] |  |  | 0 | 0 | 3 (3 = 36-45% kill) | 0 |
| CCOC(=O)CSC(c1ccccc1)C(C)[N+](=O)[O-] (stereo not shown) [Example 151] |  |  | 0 | 0 | 0 | 0 |
| O=[N+]([O-])CC(SCc1ccco1)c1ccc2c(c1)OCO2 (stereo not shown) [Example 159] |  |  | 0 | 0 | 0 | 0 |
